IC50 data for 27 molecules are collected here from patent US7238701B2, “Substituted tetrahydrobenzothienopyrimidinamine compounds useful for treating hyper-proliferative disorders” (Bayer Pharmaceuticals Corporation, priority 2003, dated 2007).

pIC50: −log10 of the molar value. Some results are limits rather than exact numbers.

Assay [1] relates to A431cells (human epidermoid carcinoma). Briefly: In vitro tumor cell proliferation assay (Cell Titer-Glo luminescent cell viability), A431 cells. The note with it: A-431, 72 h, 72 hours drug exposure, 10% Fetal Bovine Serum, ATP luminescence readout, read-out: IC50 (50% inhibition of cell proliferation). The assay is classed as cell-based. In a few lines: (§1)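 ATP luminescence (CellTiter-Glo) measured proliferation after 72 h compound exposure at 37 °C, giving IC50 values. Serial dilutions spanning 64 pM–100 μM in 0.1% DMSO were applied one day after plating 2.5×10^3 cells/well in RPMI plus 10% fetal bovine serum.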
A general note: Cellular ATP, detected with luciferase, serves as a proxy for viable cell number.

The test system of assay [2] is BT474 (human breast carcinoma). The experiment in a line: In vitro tumor cell proliferation assay (Cell Titer-Glo luminescent cell viability), BT474 cells. The assay is classed as cell-based. To be noted: BT-474, 72 hours drug exposure, 10% Fetal Bovine Serum, ATP luminescence readout, read-out: IC50 (50% inhibition of cell proliferation). The method, boiled down: as §1

For the molecule `O=C(CC1CCc2c(sc3ncnc(Nc4cccc(Br)c4)c23)C1)N1CCN(Cc2ccncc2)CC1` (stereo not drawn) [Example 103, N-(3-bromophenyl)-7-{2-oxo-2-[4-(4-pyridinylmethyl)-1-piperazinyl]ethyl}-5,6,7,8-tetrahydro[1]benzothieno[2,3-d]pyrimidin-4-amine], the values for the pIC50 in assay [1] and in assay [2] were greater than 4.30 and greater than 5.30, respectively.

Regarding `CN(C)[C@@H]1CCN(CC2CCc3c(sc4ncnc(Nc5cccc(Br)c5)c34)C2)C1` (stereo partly drawn) [Example 66, N-(3-bromophenyl)-7-{[(3R)-3-(dimethylamino)-1-pyrrolidinyl]methyl}-5,6,7,8-tetrahydro[1]benzothieno[2,3-d]pyrimidin-4-amine], the pIC50 in assay [1] and in assay [2] was greater than 5.30 in each case.

On to `CS(=O)(=O)OCCC1CCc2c(sc3ncnc(Nc4ccc5c(cnn5Cc5ccccc5)c4)c23)C1` (stereo not drawn) [Example 202, 2-{4-[(1-benzyl-1H-indazol-5-yl)amino]-5,6,7,8-tetrahydro[1]benzothieno[2,3-d]pyrimidin-7-yl}ethyl methanesulfonate], for which the pIC50 in assay [1] and in assay [2] was greater than 5.30 each time.

For `Cc1ccc(Oc2ccc(Nc3ncnc4sc5c(c34)CCC(CCN3CCC(O)C3)C5)cc2C)cn1` (stereo not drawn) [Example 233, 1-{2-[4-({3-methyl-4-[(6-methylpyridin-3-yl)oxy]phenyl}amino)-5,6,7,8-tetrahydro[1]benzothieno[2,3-d]pyrimidin-7-yl]ethyl}pyrrolidin-3-ol], the pIC50 in assay [1] was greater than 4.30; in assay [2], greater than 5.30.

For the molecule `Fc1ccc(Nc2ncnc3sc4c(c23)CCC(CCN2CCN(Cc3ccncc3)CC2)C4)cc1Cl` (stereo not drawn) [Example 99, N-(3-chloro-4-fluorophenyl)-7-{2-[4-(4-pyridinylmethyl)-1-piperazinyl]ethyl}-5,6,7,8-tetrahydro[1]benzothieno[2,3-d]pyrimidin-4-amine], the pIC50 was greater than 4.30 in assay [1] and greater than 5.30 in assay [2].

On to `N#Cc1ccc(N2CCN(CCC3CCc4c(sc5ncnc(Nc6ccc(OCc7cccc(F)c7)c(Cl)c6)c45)C3)CC2)cc1` (stereo not drawn) [Example 172, 4-(4-{2-[4-({3-chloro-4-[(3-fluorobenzyl)oxy]phenyl}amino)-5,6,7,8-tetrahydro[1]benzothieno[2,3-d]pyrimidin-7-yl]ethyl}piperazin-1-yl)benzonitrile], for which the pIC50 was greater than 4.30 in assay [1] and greater than 5.30 in assay [2].

Consider `Brc1cccc(Nc2ncnc3sc4c(c23)CCC(CCN2CCCCC2)C4)c1` (stereo not drawn) [Example 79, N-(3-bromophenyl)-7-[2-(1-piperidinyl)ethyl]-5,6,7,8-tetrahydro[1]benzothieno[2,3-d]pyrimidin-4-amine], for which the pIC50 in assay [1] and in assay [2] was greater than 5.30 each time.

For the molecule `CNCCC1CCc2c(sc3ncnc(Nc4ccc5c(cnn5Cc5ccccc5)c4)c23)C1` (stereo not drawn) [Example 229, N-(1-benzyl-1H-indazol-5-yl)-7-[2-(methylamino)ethyl]-5,6,7,8-tetrahydro[1]benzothieno[2,3-d]pyrimidin-4-amine], the figures for the pIC50 in assay [1] and in assay [2] were greater than 4.30 and greater than 5.30, respectively.

Consider `CN(C)[C@@H]1CCN(C(=O)C2CCc3c(sc4ncnc(Nc5cccc(Br)c5)c34)C2)C1` (stereo partly drawn) [Example 60, N-(3-bromophenyl)-7-{[(3R)-3-(dimethylamino)-1-pyrrolidinyl]carbonyl}-5,6,7,8-tetrahydro[1]benzothieno[2,3-d]pyrimidin-4-amine], for which the pIC50 in assay [1] and in assay [2] was greater than 5.30 throughout.

Regarding `O[C@@H]1CCN(CCC2CCc3c(sc4ncnc(Nc5ccc(OCc6cccc(F)c6)c(Cl)c5)c34)C2)C1` (stereo partly drawn) [Example 197, (3R)-1-{2-[4-({3-chloro-4-[(3-fluorobenzyl)oxy]phenyl}amino)-5,6,7,8-tetrahydro[1]benzothieno[2,3-d]pyrimidin-7-yl]ethyl}pyrrolidin-3-ol], the pIC50 in assay [1] and in assay [2] was greater than 5.30 each time.

Consider `Cc1ccc(Oc2ccc(Nc3ncnc4sc5c(c34)CCC(CCNCCO)C5)cc2C)cn1` (stereo not drawn) [Example 217, 2-({2-[4-({3-methyl-4-[(6-methylpyridin-3-yl)oxy]phenyl}amino)-5,6,7,8-tetrahydro[1]benzothieno[2,3-d]pyrimidin-7-yl]ethyl}amino)ethanol], for which the pIC50 in assay [1] was greater than 4.30; in assay [2] it was greater than 5.30.

On to `CC(C)(O)CC1CCc2c(sc3ncnc(Nc4cccc(Br)c4)c23)C1` (stereo not drawn) [Example 95, 1-{4-[(3-bromophenyl)amino]-5,6,7,8-tetrahydro[1]benzothieno[2,3-d]pyrimidin-7-yl}-2-methyl-2-propanol], for which the pIC50 in assay [1] is greater than 4.30; in assay [2] it was greater than 5.30.

On to `CS(=O)(=O)CCNC(=O)CC1CCc2c(sc3ncnc(Nc4ccc(OCc5ccc(F)cc5)c(Cl)c4)c23)C1` (stereo not drawn) [Example 147, 2-[4-({3-chloro-4-[(4-fluorobenzyl)oxy]phenyl}amino)-5,6,7,8-tetrahydro[1]benzothieno[2,3-d]pyrimidin-7-yl]-N-[2-(methylsulfonyl)ethyl]acetamide], for which the pIC50 in assay [1] and in assay [2] was greater than 4.30 in each case.

Consider `CN(C)CCC1CCc2c(sc3ncnc(Nc4ccc5c(cnn5Cc5ccccc5)c4)c23)C1` (stereo not drawn) [Example 228, N-(1-benzyl-1H-indazol-5-yl)-7-[2-(dimethylamino)ethyl]-5,6,7,8-tetrahydro[1]benzothieno[2,3-d]pyrimidin-4-amine], for which the pIC50 in assay [1] is greater than 4.30; in assay [2] it was greater than 5.30.

`Cc1ccc(Oc2ccc(Nc3ncnc4sc5c(c34)CCC(CCO)C5)cc2C)cn1` (stereo not drawn) [Example 214, 2-{4-[3-Methyl-4-(6-methyl-pyridin-3-yloxy)-phenylamino]-5,6,7,8-tetrahydro-benzo[4,5]thieno[2,3-d]pyrimidin-7-yl}-ethanol]: the figures for the pIC50 in assay [1] and in assay [2] were greater than 4.30 and greater than 5.30, respectively.

As for `O=C(O)C1CCc2c(sc3ncnc(Nc4ccc(F)c(Cl)c4)c23)C1` (stereo not drawn) [Example 20, 4-[(3-chloro-4-fluorophenyl)amino]-5,6,7,8-tetrahydro[1]benzothieno[2,3-d]pyrimidine-7-carboxylic acid], the pIC50 in assay [1] and in assay [2] was greater than 4.30 in each case.

Consider `Clc1cc(Nc2ncnc3sc4c(c23)CCC(CCN2CCOCC2)C4)ccc1OCc1ccccn1` (stereo not drawn) [Example 177, [3-Chloro-4-(pyridin-2-ylmethoxy)-phenyl]-[7-(2-morpholin-4-yl-ethyl)-5,6,7,8-tetrahydro-benzo[4,5]thieno[2,3-d]pyrimidin-4-yl]-amine], for which the pIC50 in assay [1] and in assay [2] was greater than 5.30 each time.

Take `Cc1ccc(Oc2ccc(Nc3ncnc4sc5c(c34)CCC(CCN3CCCC3C)C5)cc2C)cn1` (stereo not drawn) [Example 234, N-{3-methyl-4-[(6-methylpyridin-3-yl)oxy]phenyl}-7-[2-(2-methylpyrrolidin-1-yl)ethyl]-5,6,7,8-tetrahydro[1]benzothieno[2,3-d]pyrimidin-4-amine]: the pIC50 in assay [1] was greater than 4.30; in assay [2], greater than 5.30.

Consider `CN1CCN(CC2CCc3c(sc4ncnc(Nc5ccc(Br)cc5F)c34)C2)CC1` (stereo not drawn) [Example 22], for which the pIC50 in assay [1] and in assay [2] was greater than 5.30 each time.

Take `Cc1ccc(Oc2ccc(Nc3ncnc4sc5c(c34)CCC(CCN(C)CCO)C5)cc2C)cn1` (stereo not drawn) [Example 222, 2-(methyl{2-(4-({3-methyl-4-[(6-methylpyridin-3-yl)oxy]phenyl}amino)-5,6,7,8-tetrahydro[1]benzothieno[2,3-d]pyrimidin-7-yl]ethyl}amino)ethanol]: the pIC50 in assay [1] and in assay [2] was greater than 5.30 in each case.

Consider `COCCN1CCN(CCC2CCc3c(sc4ncnc(Nc5ccc(OCc6ccccn6)c(Cl)c5)c34)C2)CC1` (stereo not drawn) [Example 188, N-[3-chloro-4-(pyridin-2-ylmethoxy)phenyl]-7-{2-[4-(2-methoxyethyl)piperazin-1-yl]ethyl}-5,6,7,8-tetrahydro[1]benzothieno[2,3-d]pyrimidin-4-amine], for which the pIC50 in assay [1] was greater than 4.30; in assay [2] it was greater than 5.30.

On to `Fc1ccc(Nc2ncnc3sc4c(c23)CCC(CCN2CCOCC2)C4)cc1Cl` (stereo not drawn) [Example 54, N-(3-chloro-4-fluorophenyl)-7-[2-(4-morpholinyl)ethyl]-5,6,7,8-tetrahydro[1]benzothieno[2,3-d]pyrimidin-4-amine], for which the pIC50 in assay [1] and in assay [2] was greater than 5.30 throughout.

`Fc1ccc(COc2ccc(Nc3ncnc4sc5c(c34)CCC(CCN3CCCC3)C5)cc2Cl)cc1` (stereo not drawn) [Example 153, N-{3-chloro-4-[(4-fluorobenzyl)oxy]phenyl}-7-(2-pyrrolidin-1-ylethyl)-5,6,7,8-tetrahydro[1]benzothieno[2,3-d]pyrimidin-4-amine]: the pIC50 in assay [1] and in assay [2] was greater than 5.30 in each case.

With `Brc1cccc(Nc2ncnc3sc4c(c23)CCC(CCNCCN2CCOCC2)C4)c1` (stereo not drawn) [Example 78, N-(3-bromophenyl)-7-(2-{[2-(4-morpholinyl)ethyl]amino}ethyl)-5,6,7,8-tetrahydro[1]benzothieno[2,3-d]pyrimidin-4-amine], the pIC50 in assay [1] and in assay [2] was greater than 5.30 throughout.

For `Cc1ccc(Oc2ccc(Nc3ncnc4sc5c(c34)CCC(CCN3CCOCC3)C5)cc2C)cn1` (stereo not drawn) [Example 225, N-{3-methyl-4-[(6-methylpyridin-3-yl)oxy]phenyl}-7-(2-morpholin-4-ylethyl)-5,6,7,8-tetrahydro[1]benzothieno[2,3-d]pyrimidin-4-amine], the pIC50 was greater than 4.30 in assay [1] and greater than 5.30 in assay [2].

On to `CN(C)CCNCCC1CCc2c(sc3ncnc(Nc4ccc(OCc5cccc(F)c5)c(Cl)c4)c23)C1` (stereo not drawn) [Example 162, N′-{2-[4-({3-chloro-4-[(3-fluorobenzyl)oxy]phenyl}amino)-5,6,7,8-tetrahydro[1]benzothieno[2,3-d]pyrimidin-7-yl]ethyl}-N,N-dimethylethane-1,2-diamine], for which the pIC50 in assay [1] and in assay [2] was greater than 5.30 in each case.

`CCOC(=O)C1CCc2c(sc3ncnc(Nc4cccc(O)c4)c23)C1` (stereo not drawn) [Example 40, Ethyl 4-[(3-hydroxyphenyl)amino]-5,6,7,8-tetrahydro[1]benzothieno[2,3-d]pyrimidine-7-carboxylate]: the pIC50 in assay [1] and in assay [2] was greater than 4.30 throughout.
